These results are taken from US9713332B2, “Glyphosate application for weed control in Brassica” (priority 2013, dated 2017).

In series [1] the test system is canola event DP-73496-4 (GAT1). The series is described as follows: Herbicide efficacy field trials, chlorosis / crop response after late stage glyphosate application. The class given is in vivo. From the text: Field trials were split plot designed with glyphosate treatments as the main factor and entries as the subplot. Entries were randomized within the split factor, and the split was randomized within the replicate.
The following treatments with glyphosate were used as detailed below at different growth stages. In these tests, 1X glyphosate treatment was 675 g ae/ha, 2X glyphosate treatment was 1350 g ae/ha, 3X glyphosate treatment was 2025 g ae/ha and 4X glyphosate treatment was 2700 g ae/ha. All treatments were applied using a mechanical sprayer. For example, in Treatment 1 below, “2X cotyledon” describes a treatment of 1350 g ae/ha of glyphosate at the cotyledon growth stage. Various treatments were tested over a two year period and are described below.
(§1) • 1. 2X cotyledon • 2. 2X 3-5 leaf stage • 3. 2X cot+2X 3-5 leaf stage • 4. 2X cot+2X bolting BBCH55 • 5. 4X cotyledon • 6. 4X 3-5 leaf stage Treatments Tested in Year 2: • 1. 1X cotyledon+1X 3-5 leaf stage • 2. 2X cotyledon+2X 3-5 leaf stage • 3. 1X cotyledon+1X green bud BBCH51 • 4. 2X cotyledon+2X green bud BBCH51 • 5. 1X cotyledon+1X 10% flower BBCH61 • 6. 2X cotyledon+2X 10% flower BBCH61
Percent chlorosis was determined. Visual rating of chlorosis on plants was taken during the period indicated (i.e. 3-5 days) after spray application. Yellowing of the apical meristem, newest leaves or older leaves indicated herbicide-induced chlorotic injury. 100%=all tissue is yellow, 0%=no signs of yellowing tissue.
Late stage glyphosate applications are applications of glyphosate at later growth stages than on the glyphosate label. […] In Year 1, the expanded window application of glyphosate was 2X cot+2X bolting BBCH55; a 2X treatment during the cotyledon stage and an additional 2X treatment during the plant growth stage where individual flower buds (main inflorescence) are visible but are still closed. In Year 2, 1X cotyledon, 1X green bud BBCH51; 2X cotyledon, 2X green bud BBCH51; 1X cotyledon, 1X 10% flower BBCH61; and 2X cotyledon, 2X 10% flower BBCH61 expanded window treatments were included.

The subject of series [2] is canola event DP-73496-4 (GAT1). The series is described as follows: Herbicide efficacy field trials, determination of yield. Type of series: in vivo. The protocol: Field trials were split plot designed with glyphosate treatments as the main factor and entries as the subplot. The split-plot design was used since more than one glyphosate treatment in each location was evaluated, where a different treatment to an individual plot was applied. In split-plot, the levels of the main-plot factor (glyphosate treatments) and the sub-plot factors (individual event entries) within the main-plots were randomized.
The following treatments with glyphosate were used as detailed below at different growth stages. In these tests, 1X glyphosate treatment was at 675 g ae/ha, 2X glyphosate treatment was at 1350 g ae/ha, 3X glyphosate treatment was at 2025 g ae/ha and 4X glyphosate treatment was at 2700 g ae/ha as active ingredient of glyphosate. All treatments were applied using a mechanical sprayer. For example, in Treatment 1 below, “2X cotyledon” describes a treatment of 1350 g ae/ha of glyphosate at the cotyledon growth stage. Various treatments were tested over a two year period and are described below.
as §1
To reduce the growth of weeds in the control plots, conventional herbicides or mechanical pulling of weeds were used as needed. There was no glyphosate applied to the control plots and was used as the control/base to which other glyphosate treatments were compared. The control plots may have had one or more weeds present during the growing season. Control is based on conventional herbicides that are registered for use in all canola.
Plots were considered desiccated when 60-70% of the seed had turned from green to black colour. Combining occurred 5-14 days after desiccation depending on the weather conditions. Each plot was harvested individually. Moisture and weight were recorded directly on the combine. Yield was determined for the GAT1 event.
Various locations were used in the test. Trials were evaluated across 10 locations in both Year 1 and Year 2. Locations included several sites in the short, mid, and long season zones across both years.
The event that was tested was canola event DP-73496-4 (GAT1) (PCT International Patent Application No. PCT/US2010/058011, incorporated by reference).
Late stage glyphosate applications are applications of glyphosate at later growth stages than on the glyphosate label. […]

Series [3] has as its system GAT1 and GAT2 events. Nature of the series: Herbicide efficacy trials in 9 locations, herbicide-induced necrosis and chlorosis injury. The class given is in vivo, Brassica. The protocol: (§2) Transgenic events expressing GAT1 and GAT2 genes were tested herein. GAT1, as mentioned herein is the Brassica GAT event DP-073496-4 (PCT International Patent Application No. PCT/US2010/058011, incorporated by reference). GAT2, as mentioned herein is another transgenic Brassica line expressing a GAT variant.
Chlorosis percent injury describes a visual rating of the percentage of the plant with a yellowing of the apical meristem, newest leaves or older leaves, where 100% denotes that all tissue is yellow, and 0% denotes the absence of yellowing tissue in plants treated with herbicide.
GAT2 events were subjected to herbicide efficacy trials along with the GAT1 as diagonal check in 9 different locations. The herbicide efficacy trials consisted of 6 treatments that included: a control with no glyphosate, 2X, 4X or 8X glyphosate administered at the 3-5 leaf stage (1X=675 g ae/ha), a 2X administered during the 3-5 leaf stage and during the green bud stage (+2X Green Bud), and a 2X administered during the 3-5 leaf stage and during 10% bloom (+2X 10% Bloom). Herbicide-induced necrosis and chlorosis injury was recorded at leaf stages 5, 10, 21 and 30 DAT (days after treatment). […] Yield from different treatments was expressed as a percent to the 2X treatment at the 3 to 5 leaf stage. […] The application of 4X glyphosate at the 3-5 leaf stage led to a 6 to 8% decrease in yield compared to the 2X treatment, and at the 8X rate, yield decreased from 10 to 12% in treated events compared to the 2X treatment (FIG. 3).

The test system of series [4] is GAT1 and GAT2 events. The series is described as follows: Herbicide efficacy trials in 9 locations, yield as percent to the 2X treatment at the 3 to 5 leaf stage. Type of series: in vivo, Brassica. To be noted: 2X at the 3-5 leaf stage and 2X during green bud or 10% bloom stage; FIG. 3. The protocol:
as §2
Percentage of yield relative to 2X describes the yield obtained for the GAT events treated with respective glyphosate herbicide treatments compared to the same GAT events subjected to a solution containing 2X glyphosate treatment at the 3 to 5 leaf stage, expressed as a percentage of the 2X treatment at the 3 to 5 leaf stage.
GAT2 events were subjected to herbicide efficacy trials along with the GAT1 as diagonal check in 9 different locations. The herbicide efficacy trials consisted of 6 treatments that included: a control with no glyphosate, 2X, 4X or 8X glyphosate administered at the 3-5 leaf stage (1X=675 g ae/ha), a 2X administered during the 3-5 leaf stage and during the green bud stage (+2X Green Bud), and a 2X administered during the 3-5 leaf stage and during 10% bloom (+2X 10% Bloom). Herbicide-induced necrosis and chlorosis injury was recorded at leaf stages 5, 10, 21 and 30 DAT (days after treatment). […] Yield from different treatments was expressed as a percent to the 2X treatment at the 3 to 5 leaf stage. […]

SMILES strings stand for the structures.

On to `O=C(O)CNCP(=O)(O)O` [glyphosate], for which the chlorosis was found to be 1% in series [1] (Year 1, 2X Cot and 2X Bolting BBCH55 (2X = 1350 g ae/ha), all three hybrids, one location); 3% in series [1] (Year 1, 2X Cot and 2X Bolting BBCH55, one hybrid background, second location). Besides, the “recovery of transient chlorosis” value in series [1] (Year 1, 2X Cot and 2X Bolting BBCH55, 10 days after glyphosate application) was “Full recovery”. Further, the crop response result is “no crop response” in series [1] (Year 1, 2X Cot and 2X Bolting BBCH55, remaining eight locations); “did not have any crop response” in series [1] (Year 2, extended window glyphosate treatments, four GAT-expressing canola backgrounds). The “yield compared to the control treatment” value in series [2] (Year 1, 2X Cot and 2X Bolting BBCH55) was “not significantly different”; in series [2] (Year 2, late split applications at 2X glyphosate (1350 g ae/ha), BBCH51 and BBCH61) it was “did not result in yield reduction”; in series [2] (Year 2, split applications 1X Cot and 1X BBCH51 (green bud), 1X Cot and 1X BBCH61 (10% flower), four backgrounds, 1X = 675 g ae/ha) it was “did not result in yield reduction”. Moreover, the “yield of GAT1 compared to the controls” value in series [2] (at X treatment) is reported as “did not show a reduction in yield”. Also, in series [3] (both GAT1 and GAT2 events, even at 8X spray rates, and during green bud and 10% bloom, FIG. 2), the chlorotic injury entry is reported as “Negligible”. Further, in series [3] (even at 8X spray rates (1X = 675 g ae/ha), FIG. 1), the herbicide-induced necrotic injury result is given as “minimally observed”. The “herbicide-induced injury (necrosis, chlorosis) beyond 10 DAT” value in series [3] (rated 5, 10, 21 and 30 DAT, 2X, 4X, 8X at 3-5 leaf, 2X+2X green bud, 2X+2X 10% bloom) is “No injury was observed”. For the same compound, the “differences in yield compared to the 2X treatment at 3-5 leaf stage” value in series [4] is listed as “no appreciable differences in yield”.
